The source made the active and inactive calls.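 The calls were made as follows: active = fitted curve crossing a set activation limit at or below the highest valid dose tested; inconclusive = flat fit at 30 to 70% activation, or poor fit; inactive = the rest, including signal decreases.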 Where only a bound is given, the exact number is not on record here.

Among the data in PubChem BioAssay AID624491 (Broad Institute, 2012) are AC26 values, retold here.

This assay relates to D54 ERlucT glycosylation luciferase reporter, luminescence, 24 h. Briefly: blockers of NLG process in reporter cells – D54 ERlucT cells, luminescence, cherry-picks, dose response (AID 624491).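 Also: signal gain reflects blocked N-linked glycosylation of a luciferase reporter; actives raise luciferase signal so AC26 marks activators of the reporter.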
Take `C[C@@H](NC(=O)c1ncn2c1c(=O)[nH]c1ccc(Br)cc12)c1ccccc1`: the AC26 is 2060 nM.

With `Cc1ccc2nc(SCc3nnc(-c4ccccc4[N+](=O)[O-])o3)c(C#N)cc2c1`, the AC26 is 5790 nM.

For the molecule `COc1ccc(NC(=O)C(=O)NCCC2CCCCN2S(=O)(=O)c2ccccc2)cc1` (stereo unspecified), the AC26 is 5680 nM.

As for `COC1C(O)C(C)OC(OC2C(Oc3cccc4c(O)c5c(=O)oc6ccc(C)c7c(=O)oc(c34)c5c67)OC(C)C(O)C2O)C1O` (stereo unspecified), the AC26 was 1000 nM.

In the case of `Cc1cc(C)cc(-n2c3ccc(NC(=O)Cc4cccc5ccccc45)cc3c(=O)n2C)c1`, the AC26 is 1780 nM.

For `COc1ccc(Nc2nc(N(C)c3ccccc3)nc(N)c2[N+](=O)[O-])cc1`, the AC26 was 271 nM.

`COc1cc(C(=O)NC2CCN(C)CC2)ccc1Nc1ncc2c(n1)N(CCc1ccccc1)CCC(=O)N2C`: the AC26 was 396 nM.

Regarding `COc1ccc(C(=O)/C=C\c2ccc(NC(=O)c3cccs3)cc2)cc1`, the AC26 is 2000 nM.

Consider `COc1ccc(C(=O)c2cc(OC)c(OC)c(OC)c2)cc1OC`, for which the AC26 is 1250 nM.

Consider `Nc1ccc(C(=O)N2CCN(S(=O)(=O)c3ccc4c(c3)OCCO4)CC2)cc1[N+](=O)[O-]`, for which the AC26 is 3880 nM.

Consider `CCN(CC)S(=O)(=O)c1cccc(C(=O)OCC(=O)Nc2ccc3c(c2)c2ccccc2n3CC)c1`, for which the AC26 is 4110 nM.

In the case of `O=C(NCc1cccs1)C1CC(c2ccc(Cl)c(Cl)c2)=NO1` (stereo unspecified), the AC26 was 5400 nM.

Regarding `COc1ccc2c(c1)[C@H]1[C@H](CO2)[C@H](c2ccccc2)[C@]2(C)C(=O)Nc3cc(OC)c(OC)cc3C(=O)N12`, the AC26 is 13.1 nM.

Regarding `Cc1ccsc1CNc1ncnc2ccc(-c3c(C)noc3C)cc12`, the AC26 is 102 nM.

With `O=c1[nH]c(CSc2ncnc3sc(-c4ccccc4)cc23)nc2ccccc12`, the AC26 is 4470 nM.

In the case of `C[C@@H]1[C@@H](Sc2ccccc2)CC(=O)O[C@@H]1c1ccc(-c2ccccc2)cc1`, the AC26 is 920 nM.

For the molecule `O=C1Nc2ccccc2/C1=C/c1nc2ccccc2c(=O)n1-c1ccc(O)cc1`, the AC26 is 11500 nM.

With `Cc1ccc(-c2cc(C(=O)NCC(c3ccccc3)N(C)C)c3ccccc3n2)o1` (stereo unspecified), the AC26 was 11400 nM.

Regarding `Cc1cc(C)cc(NC(=O)CCn2c(=O)c3cccn3c3ccccc32)c1`, the AC26 was 4950 nM.

In the case of `CCOc1ccc(C(=O)n2cc(C(=O)OC)c3ccccc32)cc1`, the AC26 was > 19500 nM (inactive).

For `CC(C)CC(NC(=O)c1ccc(Cl)cc1)C(=O)OCC(=O)c1ccc2c(c1)NC(=O)CO2` (stereo unspecified), the AC26 is 4090 nM.

Take `COc1ccc2c(c1)c(C(=O)N/N=C/c1ccc(Br)cc1)c(C)n2C`: the AC26 is 17100 nM.

Turning to `Cc1c(-c2cccc(Cl)c2)nc2ccccc2c1C(=O)OC/C(O)=C(\C#N)c1nc2ccccc2[nH]1`, the AC26 was 5750 nM.

Take `CCOc1ccc(NC(=O)c2cc(OC)nc3ccccc23)cc1`: the AC26 was 284 nM.

On to `COc1ccc(OC)c(-c2nnc3n2N=C(c2ccc(OC)c(OC)c2)CS3)c1`, for which the AC26 was 4160 nM.

With `CCC(=NCCc1c(C)[nH]c2ccc(OC(F)(F)F)cc12)C1=C(O)CC(c2ccccc2)CC1=O` (stereo unspecified), the AC26 was 817 nM.

Consider `COc1cc2c(cc1OC)C(c1ccccc1)N(C(=O)c1cccc(S(C)(=O)=O)c1)CC2` (stereo unspecified), for which the AC26 is 193 nM.

For `COc1cccc(N2CCN(C(=O)c3ccc(CS(=O)c4ccc(Cl)cc4)o3)CC2)c1` (stereo unspecified), the AC26 was 234 nM.

Take `C[C@@]12C(=O)Nc3ccc(Br)cc3C(=O)N1[C@H]1c3ccccc3OC[C@@H]1[C@@H]2c1ccccc1`: the AC26 is 368 nM.

`COC(=O)c1ccc(C)c(NC(=O)CN(c2cc(OC)ccc2OC)S(C)(=O)=O)c1`: the AC26 is 641 nM.

As to `Cc1ccccc1OCCc1c(C)[nH]c(=S)[nH]c1=O`, the AC26 was 1700 nM.

As to `Nc1ccc(-c2cc(NC=O)c3ncc(-c4cccc(C(F)(F)F)c4)n3c2)cn1`, the AC26 is 3430 nM.

For `O=c1[nH]c(=O)n([C@H]2C[C@H](O)[C@@H](CO)O2)cc1Br`, the AC26 was 1690 nM.

In the case of `CC(C)(C)NCC(O)CON=C1c2ccccc2-c2ccccc21` (stereo unspecified), the AC26 is 5310 nM.

With `CCOC(=O)c1c(C)nc2sc3c(=O)n(-c4ccc(C)cc4)cnc3c2c1-c1ccc(OC)cc1`, the AC26 is 116 nM.

For `C=CCN(CC=C)S(=O)(=O)c1ccc(C(=O)Nc2nc3c(s2)CCc2ccccc2-3)cc1`, the AC26 is 6790 nM.

As for `COc1ccc(C(=O)CSc2nnc(-c3cc4ccccc4cc3O)n2Cc2ccco2)cc1`, the AC26 is 1840 nM.

Take `CCOC(=O)Cc1csc(/N=C/c2c(O)n(-c3ccc(C)c(C)c3)c(=O)c3ccccc23)n1`: the AC26 is 2580 nM.

With `COc1ccc(S(=O)(=O)NCc2ccccn2)cc1NC(=O)c1ccccc1F`, the AC26 is 1200 nM.

Regarding `COc1ccc(-c2[nH]nc(-c3ccccc3)c2-c2nc3ccccc3[nH]2)cc1`, the AC26 is 3900 nM.

In the case of `COC(=O)c1ccccc1NC(=O)Cn1c(-c2nonc2N)nc2ccccc21`, the AC26 is 120 nM.

Take `COc1ccc(N/C=C/C(=O)c2cc(OC)c(OC)c(OC)c2)cc1`: the AC26 was 28.7 nM.

For the molecule `C/C(=N\NC(=O)c1c(Cl)c(C)nn1C)c1ccc(NC(=O)C2CCC2)cc1`, the AC26 was 3.55 nM.

On to `CC(=O)N1N=C(c2ccc(NS(=O)(=O)c3ccccc3)cc2)CC1c1ccco1` (stereo unspecified), for which the AC26 was 912 nM.

Take `COc1ccc(/C=C/C(=O)Oc2cccc(/C=N/NC(=O)COc3c(C)cccc3C)c2)cc1`: the AC26 was 4770 nM.

As for `CCn1c(=O)c2cc(C(=O)NCCN(C)C)sc2c2ccccc21`, the AC26 was 5230 nM.

Take `Cc1nc2c3cc(F)ccc3n(Cc3ccc(F)cc3)c2s1`: the AC26 is 11500 nM.

Regarding `COc1ccc(Nc2c3ccccc3nc3ccccc23)cc1`, the AC26 was 1020 nM.

Regarding `C#CC[N+](C)(C)CCCCCCCCCCCC`, the AC26 is 7360 nM.

On to `CC1(C(=O)NCc2ccco2)Cc2c(-c3ccc(C(N)=O)cc3)ccnc2O1` (stereo unspecified), for which the AC26 is 1390 nM.

Turning to `Cc1cccc2c1NC(=O)/C2=C\C(=O)c1cccs1`, the AC26 was 4260 nM.

Consider `Cc1noc2ncnc(Sc3ccccc3Cl)c12`, for which the AC26 was 12500 nM.

For `Cc1ccc(N2CC(C(=O)Nc3ccc(S(=O)(=O)N4CCOCC4)cc3)CC2=O)cc1Cl` (stereo unspecified), the AC26 is 3860 nM.

Regarding `Cc1ccc(COc2cccc(/C=N/NC(=O)c3nnn(-c4nonc4N)c3C)c2)cc1`, the AC26 was 1160 nM.

Consider `O=S(=O)([N-]c1nc2ccccc2nc1-n1cc[n+](Cc2ccccc2)c1)c1ccc(Br)cc1`, for which the AC26 was 236 nM.

As for `COc1ccc(NC(=O)C2Cc3c(-c4cccc(NC(C)=O)c4)ccnc3O2)cc1` (stereo unspecified), the AC26 is 1560 nM.

Regarding `CCOc1ccc2nc(NCCNC(=O)Nc3cccc(C)c3)c(C#N)cc2c1`, the AC26 is 4010 nM.

As for `Cc1ccc(CC(=O)NCc2ccc(F)cc2)cc1`, the AC26 is 824 nM.

On to `O=C(NCCc1ccccc1)C1c2ccccc2C(=O)N1Cc1cccs1` (stereo unspecified), for which the AC26 is 2690 nM.

Regarding `COc1ccc(-c2nnc(SCC(=O)Nc3ncc(C)s3)n2-c2ccccc2)cc1OC`, the AC26 is 1050 nM.

Turning to `COC(=O)c1cc(C(=O)c2c(C)cc3ccccn23)cc([N+](=O)[O-])c1`, the AC26 is 1770 nM.

Take `O=C(NCC1CCCO1)c1cc(-c2ccccc2)on1` (stereo unspecified): the AC26 is 6450 nM.

`CC(=O)Nc1ccc(CC(=O)NCCC(c2ccccc2)c2ccccc2)cc1`: the AC26 is 11300 nM.

As to `COc1ccccc1-c1csc(C(NC(C)=O)c2ccccc2)n1` (stereo unspecified), the AC26 was < 1.2 nM.

With `CCCn1nc(C(=O)N2CC(=O)Nc3ccccc32)c2ccccc2c1=O`, the AC26 is 4890 nM.

Regarding `CCOC(=O)c1[nH]c(C)c(C(=O)Nc2ccc(C)cc2C)c1C`, the AC26 is 494 nM.
